The text below walks through data of ChEMBL document CHEMBL3286137, “Design, synthesis and structure-activity relationships of novel 4-phenoxyquinoline derivatives containing pyridazinone moiety as potential antitumor agents” (Eur J Med Chem, 2014).

The IC50 is the concentration needed to halve the response being measured.

A short description of assay [1]: cells. Conditions: Homo sapiens, NCI-H460, 72 h.
Assay [2] deals with HT-29. Briefly: cells. Conditions: Homo sapiens, HT-29, 72 h.
Assay [3] deals with A549. Briefly: cells. The conditions noted are these: Homo sapiens, A549, 72 h.
The nature of assay [4]: cells. Conditions: Homo sapiens, MKN-45, 72 h.
Assay [5] is described as follows: Cytotoxicity against human U87MG cells assessed as inhibition of cell growth after 72 hrs by MTT assay. Format: functional, cell-based, U-87MG ATCC. The conditions noted are these: U-87 MG.

In the case of `COc1ccc(-n2nc(C(=O)Nc3ccc(Oc4ccnc5cc(OCCCN6CCCC6)c(OC)cc45)c(F)c3)c(C)cc2=O)cc1`, the IC50 in assay [1] was found to be 3610 nM; in assay [2] it was 3300 nM; in assay [3], 2770 nM; in assay [4], 1290 nM; in assay [5], 2960 nM.
For the compound `COc1cc2c(Oc3ccc(NC(=O)c4nn(-c5ccccc5)c(=O)cc4C)cc3F)ccnc2cc1OCCCN1CCOCC1`, the IC50 was determined as 450 nM in assay [1]; 350 nM in assay [2]; 720 nM in assay [3]; 110 nM in assay [4]; 1600 nM in assay [5].
For `COc1cc2c(Oc3ccc(NC(=O)c4nn(-c5ccccc5C(F)(F)F)c(=O)cc4C)cc3F)ccnc2cc1OCCCN1CCCCC1`, in that order: 210 nM, 170 nM, 140 nM, 90 nM and 1150 nM.
Regarding `COc1cc2c(Oc3ccc(NC(=O)c4nn(-c5ccccc5C)c(=O)cc4C)cc3F)ccnc2cc1OCCCN1CCCCC1`, the IC50 was determined as 3220 nM in assay [1]; 2810 nM in assay [2]; 1920 nM in assay [3]; 1310 nM in assay [4]; 2500 nM in assay [5].
In the case of `COc1ccc(-n2nc(C(=O)Nc3ccc(Oc4ccnc5cc(OCCCN6CCCCC6)c(OC)cc45)c(F)c3)c(C)cc2=O)cc1`, the IC50 in assay [1] stood at 3730 nM; in assay [2], 3200 nM; in assay [3] it was 1500 nM; in assay [4], 330 nM; in assay [5], 1800 nM.
As for `COc1cc2c(Oc3ccc(NC(=O)c4nn(-c5ccccc5C(F)(F)F)c(=O)cc4C)cc3F)ccnc2cc1OCCCN1CCC(C)CC1`, the IC50 in assay [1] is 200 nM; in assay [2], 180 nM; in assay [3] it was 160 nM; in assay [4] it was 60 nM; in assay [5], 1120 nM.
For `COc1cc2c(Oc3ccc(NC(=O)c4nn(-c5ccccc5C)c(=O)cc4C)cc3F)ccnc2cc1OCCCN1CCCC1`, in that order: 1590 nM, 1400 nM, 1300 nM, 760 nM and 2960 nM.
As to `COc1cc2c(Oc3ccc(NC(=O)c4nn(-c5ccc(F)c(F)c5)c(=O)cc4C)cc3F)ccnc2cc1OCCCN1CCCC1`, the IC50 amounted to 170 nM in assay [1]; 150 nM in assay [2]; 220 nM in assay [3]; 80 nM in assay [4]; 1400 nM in assay [5].
Take `COc1cc2c(Oc3ccc(NC(=O)c4nn(-c5cccc(F)c5)c(=O)cc4C)cc3F)ccnc2cc1OCCCN1CCN(C)CC1`: the concentration for half-maximal inhibition (IC50) is 260 nM in assay [1]; 250 nM in assay [2]; 150 nM in assay [3]; 120 nM in assay [4]; 1590 nM in assay [5].
For the compound `COc1ccc(-n2nc(C(=O)Nc3ccc(Oc4ccnc5cc(OCCCN6CCOCC6)c(OC)cc45)c(F)c3)c(C)cc2=O)cc1`, the half-maximal inhibitory concentration (IC50) in assay [1] turned out to be 1770 nM; in assay [2], 1230 nM; in assay [3], 1500 nM; in assay [4], 260 nM.
For `COc1cc2c(Oc3ccc(NC(=O)c4nn(-c5ccc(F)c(F)c5)c(=O)cc4C)cc3F)ccnc2cc1OCCCN1CCOCC1`, in that order: 390 nM, 160 nM, 320 nM and 90 nM.
For `COc1ccc(-n2nc(C(=O)Nc3ccc(Oc4ccnc5cc(OCCCN6CCN(C)CC6)c(OC)cc45)c(F)c3)c(C)cc2=O)cc1`, in that order: 3660 nM, 3520 nM, 2200 nM and 1230 nM.
For the compound `COc1cc2c(Oc3ccc(NC(=O)c4nn(-c5ccc(F)c(F)c5)c(=O)cc4C)cc3F)ccnc2cc1OCCCN1CCN(C)CC1`, the IC50 in assay [1] was 190 nM; in assay [2], 170 nM; in assay [3], 130 nM; in assay [4] it was 120 nM.
With `COc1cc2c(Oc3ccc(NC(=O)c4nn(-c5ccc(Cl)cc5Cl)c(=O)cc4C)cc3F)ccnc2cc1OCCCN1CCC(C)CC1`, the IC50 was 250 nM in assay [1], 170 nM in assay [2], 200 nM in assay [3] and 120 nM in assay [4].
